The structures appear in SMILES notation. Converted amounts (≈) assume the structure as drawn.

Experimental findings from paper PMC11494662, “Insight into the Course of the Ferrier Rearrangement Used to Obtain Untypical Diosgenyl Saponins” (The Journal of Organic Chemistry, 2024) are described below.

In test [1] the test system is prostate cancer cells (PC3 line). Briefly: MTT cytotoxicity assay, PC3. The class given is cell-based, human. The settings on record: for IC50: Homo sapiens, PC-3; for IC50 / IC50 PC3: PC3 cells, 48 h treatment, MTT; for SI PC3 (selectivity index): ratio of IC50 for normal cell line (HaCaT) to IC50 for PC3, 48 h. How it is done:
(§1) The MTT assay was performed to specify the cytotoxicity of 7–12 and 13–18 against prostate cancer cells (PC3 line), breast cancer cells (MCF7 line), and human keratinocytes (HaCaT line). The mentioned cell lines were assayed by exposing them for 48 h to a medium containing the studied compounds over a wide range of concentrations. The IC50 values (dose of the compound which caused a 50% reduction of cell viability) and the selectivity indexes (SI), which show the ratio of IC50 for normal cell line to IC50 for cancer cell line, are shown in Table S2. An MTT assay was performed to specify the cytotoxicity of the studied compounds against breast cancer cells (MCF-7 line, ATCC), prostate cancer cells (PC3 line, ATCC) and human keratinocytes (HaCaT line, CLS). The MCF-7 cell line was cultured in an RPMI 1640 medium (Gibco, Thermo Fisher Scientific), the PC3 cell line in a F-12K medium (Gibco, Thermo Fisher Scientific), and the HaCaT cell line in a high-glucose DMEM (Gibco, Thermo Fisher Scientific). Each medium was supplemented with 10% fetal bovine serum (Gibco, Thermo Fisher Scientific) and antibiotics (penicillin and streptomycin, Gibco, Thermo Fisher Scientific). Cells were seeded at a density of 4000 per well into 96-well plates and incubated at 37 °C in a 5% CO2 atmosphere. The cells were treated with studied compounds in a concentration range of 0.1–100 μg/mL or with a vehicle (1% DMSO) as a control and subsequently incubated for 48 h. Thereafter, the MTT salt solution (3-(4,5-dimethylthiazol-2-yl)-2,5-diphenyltetrazolium bromide, VWR) was added at a concentration of 4 mg/mL (25 μL per well), and the obtained product (formazan) after 3 h of incubation was dissolved in DMSO. An EnSpire microplate reader (PerkinElmer) was used to measure absorbance at 570 nm (the reference wavelength was 660 nm). The viability of the control cells was taken as 100%. Three independent experiments were conducted in triplicate. Statistical analysis of the results and estimation of IC50 values were performed using GraphPad Prism 7 software.

Test [2] deals with breast cancer cells (MCF-7 line). The experiment in a line: MTT cytotoxicity assay, MCF7. The class given is cell-based, human. The settings on record: for IC50: Homo sapiens; for IC50 / IC50 MCF7: MCF7 cells, 48 h treatment, MTT; for SI MCF7 (selectivity index): ratio of IC50 for normal cell line (HaCaT) to IC50 for MCF7, 48 h. How it is done:
as §1

The test system of test [3] is human keratinocytes (HaCaT line). The experiment in a line: MTT cytotoxicity assay, HaCaT. The class given is cell-based. The note with it: HaCaT normal cells, 48 h treatment; for IC50: Homo sapiens. How it is done:
as §1
Background: Tetrazolium assays rely on reduction of a dye to a coloured formazan, in cell work by metabolically active cells.

In a further test the test system is E. faecium ATCC 29212. The experiment in a line: MIC, broth dilution method. The class given is cell-based. The settings on record: Enterococcus faecium, ATCC29212; MHB II, 18 h, 37 °C; read-out: Minimum inhibitory concentration E. faecium ATCC 29212. How it is done: (§2) MIC was determined with the dilution method in Mueller–Hinton II broth (MHB II) on 96-well polystyrene plates. The reference strains (Polish Academy of Sciences, Wroclaw, Poland) of Gram-positive bacteria (Enterococcus faecium ATCC 29,212, S. aureus ATCC 6538, S. aureus ATCC 43,300, S. aureus ATCC 12,598, S. aureus ATCC 25,923, S. aureus, ATCC 33,591, Staphylococcus epidermidis ATCC 14,990) and Gram-negative bacteria (Acinetobacter baumanii ATCC 23,506, Escherichia coli ATCC 25,922, Klebsiella pneumoniae ATCC 700,603, Pseudomonas aeruginosa ATCC 9027) were suspended in MHB II medium to initial inoculum of 10^5 cfu/mL. The microbes were exposed to graded concentrations of tested compounds (range 0.5–256 mg/L) for 18 h at 37 °C under aerobic conditions. The compounds were dissolved in DMSO and then diluted with PBS. […] MIC was taken as the lowest concentration at which no microbial growth was observed. The experiments were performed in triplicate.
On the technique in general: Broth dilution looks for growth in wells or tubes with falling amounts of substance.

A further test has as its system S. aureus ATCC 12598. The experiment in a line: MIC, broth dilution method. The class given is cell-based. The settings on record: Staphylococcus aureus, ATCC12598; MHB II, 18 h, 37 °C; read-out: Minimum inhibitory concentration S. aureus ATCC 12598. How it is done: as §2
The test system of another test is S. aureus ATCC 25923. The experiment in a line: MIC, broth dilution method. Format: cell-based. The note with it: Staphylococcus aureus, ATCC25923; MHB II, 18 h, 37 °C; read-out: Minimum inhibitory concentration S. aureus ATCC 25923. How it is done: as §2
For another test, the system named is S. aureus ATCC 33591. Briefly: MIC, broth dilution method. The class given is cell-based. The note with it: Staphylococcus aureus, ATCC33591; MHB II, 18 h, 37 °C; read-out: Minimum inhibitory concentration S. aureus ATCC 33591. How it is done:
as §2

In another test the test system is S. aureus ATCC 43300. Briefly: MIC, broth dilution method. The class given is cell-based. The settings on record: Staphylococcus aureus, ATCC43300; MHB II, 18 h, 37 °C; read-out: Minimum inhibitory concentration S. aureus ATCC 43300. How it is done:
as §2

For the next test, the system named is S. aureus ATCC 6538. Briefly: MIC, broth dilution method. Format: cell-based. The settings on record: Staphylococcus aureus, ATCC6538; MHB II, 18 h, 37 °C; read-out: Minimum inhibitory concentration S. aureus ATCC 6538. How it is done:
as §2

For test [4], the system named is S. epidermidis ATCC 14990. Briefly: MIC, broth dilution method. Format: cell-based. The settings on record: Staphylococcus epidermidis, ATCC14990; MHB II, 18 h, 37 °C; read-out: Minimum inhibitory concentration S. epidermidis ATCC 14990. How it is done:
as §2

Test [5] relates to Staphylococcus aureus strains tested, including methicilin-resistant S. aureus. Briefly: Antistaphylococcal activity, summary over the strains tested. The class given is cell-based. The settings on record: range over the S. aureus strains tested. How it is done: as §2

One may read the IC50 as the point on the concentration scale where inhibition reaches its midpoint. Read a high IC50 as weaker potency. As to `C[C@@H]1CC[C@@]2(OC1)O[C@H]1C[C@H]3[C@@H]4CC=C5C[C@@H](O[C@@H]6CC[C@@H](O)[C@@H](CO)O6)CC[C@]5(C)[C@H]4CC[C@]3(C)[C@H]1[C@@H]2C` [14α, Diosgenyl 2,3-Dideoxy-α-D-threo-hexopyranoside], the IC50 came out at 41.1 µM in test [1], 25 µM in test [2] and 53.2 µM in [3]. Further, in [1], the “SI PC3 (selectivity index)” value is 1.29. For the same compound, in test [2], the “SI MCF7 (selectivity index)” value was 2.13. In addition, the MIC in the test with E. faecium ATCC 29212 was above 256 mg/L; in the test on S. aureus ATCC 12598, 256 mg/L (≈ 470 µM); with S. aureus ATCC 25923, 64 mg/L (≈ 117 µM); in the test with S. aureus ATCC 33591, 256 mg/L (≈ 470 µM); with S. aureus ATCC 43300 it was 128 mg/L (≈ 235 µM); in the test on S. aureus ATCC 6538, 64 mg/L (≈ 117 µM). Besides, the MIC in test [4] was above 256 mg/L. For the same compound, the “concentrations at which antistaphylococcal activity was achieved” value in [5] fell in the range of 64 to 256 mg/L.
For the compound `C[C@@H]1CC[C@@]2(OC1)O[C@H]1C[C@H]3[C@@H]4CC=C5C[C@@H](O[C@@H]6CC[C@H](O)CO6)CC[C@]5(C)[C@H]4CC[C@]3(C)[C@H]1[C@@H]2C` [17α], the IC50 in [1] is 73.2 µM; in test [2], 68.2 µM; in test [3], 48.3 µM. For the same compound, the “SI PC3 (selectivity index)” value in test [1] was 0.66. Besides, the “SI MCF7 (selectivity index)” value in test [2] is on record as 0.71. The MIC is above 256 mg/L in the test with E. faecium ATCC 29212; 256 mg/L (≈ 497 µM) with S. aureus ATCC 12598; 256 mg/L (≈ 497 µM) with S. aureus ATCC 25923; 256 mg/L (≈ 497 µM) in the test on S. aureus ATCC 33591; 128 mg/L (≈ 249 µM) with S. aureus ATCC 43300; 128 mg/L (≈ 249 µM) in the test with S. aureus ATCC 6538. Further, the MIC in [4] is above 256 mg/L. The “concentrations at which antistaphylococcal activity was achieved” value in test [5] was in the range of 128 to 256 mg/L.
For the compound `C[C@@H]1CC[C@@]2(OC1)O[C@H]1C[C@H]3[C@@H]4CC=C5C[C@@H](O[C@@H]6C=C[C@@H](O)[C@@H](CO)O6)CC[C@]5(C)[C@H]4CC[C@]3(C)[C@H]1[C@@H]2C` [8α, Diosgenyl 2,3-Dideoxy-α-D-threo-hex-2-enopyranoside], the IC50 was 21.4 µM in test [1], 44.9 µM in test [2] and 22.2 µM in test [3]. For the same compound, the “SI PC3 (selectivity index)” value in test [1] was 1.04. In addition, the “SI MCF7 (selectivity index)” value in test [2] stood at 0.49. The MIC with E. faecium ATCC 29212, in the test on S. aureus ATCC 12598, in the test on S. aureus ATCC 25923, in the test with S. aureus ATCC 33591, in the test with S. aureus ATCC 43300 and with S. aureus ATCC 6538 was above 256 mg/L in each case. For the same compound, the MIC in test [4] was above 256 mg/L.
For the compound `C[C@@H]1CC[C@@]2(OC1)O[C@H]1C[C@H]3[C@@H]4CC=C5C[C@@H](O[C@H]6C=C[C@H](O)CO6)CC[C@]5(C)[C@H]4CC[C@]3(C)[C@H]1[C@@H]2C` [11β], the “IC50 PC3” value is “completely inactive” in test [1] and “inactive” in [1] (listed as 11). Besides, the “IC50 MCF7” value in [2] was “completely inactive”; in test [2] (listed as 11), “inactive”. Further, the figures for the “IC50 HaCaT” value in test [3] and in [3] (listed as 11) were “completely inactive” and “inactive”, respectively. The MIC in the test on E. faecium ATCC 29212, with S. aureus ATCC 12598, in the test with S. aureus ATCC 25923, with S. aureus ATCC 33591, in the test on S. aureus ATCC 43300 and in the test on S. aureus ATCC 6538 was above 256 mg/L throughout. For the same compound, the MIC in test [4] was above 256 mg/L.
For `C[C@@H]1CC[C@@]2(OC1)O[C@H]1C[C@H]3[C@@H]4CC=C5C[C@@H](O[C@@H]6CC[C@@H](O)CO6)CC[C@]5(C)[C@H]4CC[C@]3(C)[C@H]1[C@@H]2C` [18β], the IC50 is 28.9 µM in [1], 26.9 µM in [2] and 59.9 µM in test [3]. For the same compound, the “SI PC3 (selectivity index)” value in test [1] is “ca. 2”; in [1] (listed as 18) it was 2.07. Besides, the “SI MCF7 (selectivity index)” value is recorded as “ca. 2” in test [2] and 2.23 in [2] (listed as 18). Besides, the MIC in the test with E. faecium ATCC 29212, with S. aureus ATCC 12598, in the test with S. aureus ATCC 25923, in the test with S. aureus ATCC 33591, in the test with S. aureus ATCC 43300 and in the test on S. aureus ATCC 6538 was above 256 mg/L in each case. Also, the MIC in test [4] was above 256 mg/L.
